Drawing on patent US20230145305A1, “COMPOUNDS USEFUL AS KINASE INHIBITORS” (Fochon Biosciences, Ltd., priority 2020, published 2023), this text covers IC50 for eleven molecules.

The test system of the assay is OCI-LY10 cells. The assay can be described thus: Cell proliferation assay (MTS) in OCI-LY10 cells. The class given is cell-based. The settings on record: Homo sapiens; inhibition of OCI-LY10 cells proliferation, 72 h incubation, MTS, absorbance at 490 nm; read-out: OCI-LY10 IC50. Put shortly:
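BTK-dependent OCI-LY10 proliferation: cells seeded at 10000/well, preincubated 4 h, then compound exposure 72 h at 37° C., 5% CO2. MTS added for 2 h and absorbance read at 490 nm; IC50 derived from the concentration-response.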

SMILES strings stand for the structures.

As for `COc1ccc(F)cc1C(=O)NCc1ccc(-n2nc(CC3CC3)c3c(=O)[nH]nc(N)c32)cc1` [Example 93, N-(4-(7-amino-3-(cyclopropylmethyl)-4-oxo-4,5-dihydro-1H-pyrazolo[3,4-d]pyridazin-1-yl)benzyl)-5-fluoro-2-methoxybenzamide], the concentration for half-maximal inhibition (IC50) (in general, the concentration that gives 50% inhibition) was 24 nM. With `COc1ccc(F)cc1C(=O)NCc1ccc(-c2nn([C@@H]3CCCC3(F)F)c3c(=O)[nH]nc(N)c23)cc1` [Example 72, (R)-N-(4-(4-amino-1-(2,2-difluorocyclopentyl)-7-oxo-6,7-dihydro-1H-pyrazolo[3,4-d]pyridazin-3-yl)benzyl)-5-fluoro-2-methoxybenzamide], the 50% inhibitory concentration (IC50) was 1 nM. In the case of `COc1ccc(F)cc1C(=O)NCc1ccc(-c2nn(C(C)CF)c3c(=O)[nH]nc(N)c23)cc1` (centres unmarked) [Example 75, N-(4-(4-amino-1-(1-fluoropropan-2-yl)-7-oxo-6,7-dihydro-1H-pyrazolo[3,4-d]pyridazin-3-yl)benzyl)-5-fluoro-2-methoxybenzamide], the IC50 was found to be 12 nM. As for `COc1ccc(F)cc1C(=O)NCc1ccc(-n2nc(C3CCCC3)c3c(=O)[nH]nc(N)c32)cc1` [Example 16, N-(4-(7-amino-3-cyclopentyl-4-oxo-4,5-dihydro-1H-pyrazolo[3,4-d]pyridazin-1-yl)benzyl)-5-fluoro-2-methoxybenzamide], the IC50 is 1 nM. As to `COc1ccc(F)cc1C(=O)NCc1ccc(-c2nn([C@H]3CCC[C@@H]3F)c3c(=O)[nH]nc(N)c23)cc1` [Example 80, N-(4-(4-amino-1-((1S,2S)-2-fluorocyclopentyl)-7-oxo-6,7-dihydro-1H-pyrazolo[3,4-d]pyridazin-3-yl)benzyl)-5-fluoro-2-methoxybenzamide], the concentration for half-maximal inhibition (IC50) stood at 1 nM.

For the molecule `COc1ccc(F)cc1C(=O)NCc1ccc(-c2nn(C3CCC3)c3c(=O)[nH]nc(N)c23)cc1` [Example 65, N-(4-(4-amino-1-cyclobutyl-7-oxo-6,7-dihydro-1H-pyrazolo[3,4-d]pyridazin-3-yl)benzyl)-5-fluoro-2-methoxybenzamide], the IC50 is 1 nM. As to `COc1ccc(F)cc1C(=O)NCc1ccc(-c2cn(C3CCC3)c3c(=O)[nH]nc(N)c23)cc1` [Example 36, N-(4-(4-amino-1-cyclobutyl-7-oxo-6,7-dihydro-1H-pyrrolo[2,3-d]pyridazin-3-yl)benzyl)-5-fluoro-2-methoxybenzamide], the IC50 came out at 1 nM.

Turning to `COC(=O)N1CC[C@@H](n2cc(-c3ccc(CNC(=O)c4cc(F)ccc4OC)cc3)c3c(N)n[nH]c(=O)c32)C1` [Example 49, methyl (R)-3-(4-amino-3-(4-((5-fluoro-2-methoxybenzamido)methyl)phenyl)-7-oxo-6,7-dihydro-1H-pyrrolo[2,3-d]pyridazin-1-yl)pyrrolidine-1-carboxylate], the 50% inhibitory concentration (IC50) worked out at 9 nM. Then `COc1ccc(F)cc1C(=O)NCc1ccc(-c2nn(C3(C)CCC3)c3c(=O)[nH]nc(N)c23)cc1` [Example 73, N-(4-(4-amino-1-(1-methylcyclobutyl)-7-oxo-6,7-dihydro-1H-pyrazolo[3,4-d]pyridazin-3-yl)benzyl)-5-fluoro-2-methoxybenzamide], with 1 nM; and `COc1ccc(F)cc1C(=O)NCc1ccc(-c2cn(C3CC(F)(F)C3)c3c(=O)[nH]nc(N)c23)cc1` [Example 54, N-(4-(4-amino-1-(3,3-difluorocyclobutyl)-7-oxo-6,7-dihydro-1H-pyrrolo[2,3-d]pyridazin-3-yl)benzyl)-5-fluoro-2-methoxybenzamide], with 1 nM; and `COc1ccc(F)cc1C(=O)NCc1ccc(-c2cn(C3CCCCC3)c3c(=O)[nH]nc(N)c23)cc1` [Example 35, N-(4-(4-amino-1-cyclohexyl-7-oxo-6,7-dihydro-1H-pyrrolo[2,3-d]pyridazin-3-yl)benzyl)-5-fluoro-2-methoxybenzamide], with 1 nM.
